Read-outs that look alike come from different tables or passages of the source.
Tests used:
Format in all cases: cell-based
[1] = tested on: DENV2 replicon; test: DENV-2 Huh-7 Rep EC50 (replicon luminescence)
In short: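 Huh-7 cells carrying a DENV2 replicon, 5,000 cells/well, were incubated with dosed compounds for 48 h at 37° C. EnduRen live-cell substrate was added 1.5 h before luminescence reading. EC50 came from dose-response against DMSO-only wells.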

[2] = tested on: RSV A2; test: RSV NHBE EC50 (RSV A2 antiviral assay in NHBE cells); conditions: read-out: RSV NHBE EC50
In short: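 Primary bronchial epithelial cells attach overnight, receive 3-fold serial compound dilutions, and are infected with RSV A2 at 1×10^4.5 tissue culture infectious doses/mL. Protection from virus-induced cell death is scored by luminescent viability assay after 4 days.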

[3] = tested on: RSV strain A2; test: microbe, parasite or virus in culture; conditions: Table 3, HEp-2 cells, RSV A2, 4 days, read-out: RSV HEp-2 EC50
In short: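 Cytopathic-effect protection assay: HEp-2 cells (50,000/mL) infected with pre-titered RSV A2 onto 3-fold serial compound dilutions, incubated 4 days at 37° C. Cell viability read by CellTiter-Glo luminescence; percent inhibition derived against 0% and 100% virus-inhibition controls.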

[4] = Table 3, Huh-7 DENV2 replicon cells, 48 hours, read-out: DENV-2 REP Huh7 EC50
[5] = Table 3, NHBE cells, RSV A2, 4 days
[6] = Dengue virus, DENV2, Huh-7, 48 h, read-out: DENV-2 REP Huh7 EC50
[7] = human respiratory syncytial virus, NHBE, 96 h, Table 3, NHBE cells, RSV A2, 4 days
[8] = human respiratory syncytial virus, NHBE, Table 5 comparative activity, 2',3'-OH vs -OC(O)iPr
[9] = human respiratory syncytial virus, HEp-2, 96 h

`CCC(=O)O[C@H]1[C@H](c2ccc3c(N)ncnn23)O[C@](C#N)(CO[P@@](=O)(N[C@@H](C)C(=O)OCC2CC2)Oc2ccccc2)[C@H]1OC(=O)CC` [Example 99] showed an EC50 [1, 4] of 6310 nM, an EC50 [2, 5] of 14 nM and an EC50 [3] of 58 nM.
In the case of `COC(=O)[C@H](C)N[P@](=O)(OC[C@@]1(C#N)O[C@@H](c2ccc3c(N)ncnn23)[C@H](OC(=O)C(C)C)[C@@H]1OC(=O)C(C)C)Oc1ccccc1` (single isomer, unassigned) [Example 140], the EC50 [1, 6] is reported as 5270 nM, the EC50 [2, 7] is reported as 14 nM and the EC50 [2, 8] is reported as 14 nM. The EC50 [3, 9] was 42 nM.
For `CC(C)C(=O)O[C@H]1[C@H](c2ccc3c(N)ncnn23)O[C@](C#N)(COP(=O)(N[C@@H](C)C(=O)OC2COC2)Oc2ccccc2)[C@H]1OC(=O)C(C)C` (single isomer, unassigned) [Example 186], the EC50 [1, 4] was 4220 nM, the EC50 [2, 5] was 4 nM and the EC50 [3] was 41 nM.
With `COC(=O)[C@H](C)N[P@](=O)(OC[C@@]1(C#N)O[C@@H](c2ccc3c(=N)n(COP(=O)(O)O)cnn23)[C@H](OC(=O)C(C)C)[C@@H]1OC(=O)C(C)C)Oc1ccccc1` [Example 259, (2R,3S,4S,5S)-2-cyano-5-(4-imino-3-((phosphonooxy)methyl)-3,4-dihydropyrrolo[2,1-f][1,2,4]triazin-7-yl)-2-((((S)-(((S)-1-methoxy-1-oxopropan-2-yl)amino)(phenoxy)phosphoryl)oxy)methyl)tetrahydrofuran-3,4-diyl bis(2-methylpropanoate)] the EC50 [1, 6] was 5360 nM, the EC50 [2, 7] was 11 nM and the EC50 [3, 9] was 36 nM.
For `CCC(CC)COC(=O)[C@H](C)N[P@](=O)(OC[C@@]1(C#N)O[C@@H](c2ccc3c(N)ncnn23)C(OC(=O)C(C)C)[C@@H]1OC(=O)C(C)C)Oc1ccccc1` (stereo in doubt) [Example 86, (2R,3S,4R,5S)-5-(4-aminopyrrolo[2,1-f][1,2,4]triazin-7-yl)-2-cyano-2-((((S)-(((S)-1-(2-ethylbutoxy)-1-oxopropan-2-yl)amino)(phenoxy)phosphoryl)oxy)methyl) tetrahydrofuran-3,4-diyl bis(2-methylpropanoate)], the EC50 [1, 6] was 8950 nM, the EC50 [2, 7] was 24 nM and the EC50 [3, 9] was 100 nM.
Compound `CC(C)C(=O)O[C@H]1[C@H](c2ccc3c(N)ncnn23)O[C@](C#N)(COP(=O)(N[C@@H](C)C(=O)OCC2CCOCC2)Oc2ccccc2)[C@H]1OC(=O)C(C)C` (single isomer, unassigned) [Example 183] has an EC50 [1, 4] of 3650 nM, an EC50 [2, 5] of 50 nM and an EC50 [3] of 69 nM.
In the case of `CC(C)C(=O)O[C@H]1[C@H](c2ccc3c(N)ncnn23)O[C@](C#N)(COP(=O)(N[C@@H](C)C(=O)OCC2COC2)Oc2ccccc2)[C@H]1OC(=O)C(C)C` (single isomer, unassigned) [Example 201], the EC50 [1, 4] is reported as 7690 nM, the EC50 [2, 5] is reported as 14 nM and the EC50 [3] is reported as 92 nM.
Work on `CCOC(=O)[C@H](C)N[P@](=O)(OC[C@@]1(C#N)O[C@@H](c2ccc3c(N)ncnn23)[C@H](OC(=O)C(C)C)[C@@H]1OC(=O)C(C)C)Oc1ccccc1` (single isomer, unassigned) [Example 144] yielded an EC50 [1, 6] of 6170 nM, an EC50 ([1]; Dengue virus, DENV2, Huh-7, read-out: DENV Rep EC50) of 6170 nM and an EC50 [2, 7] of 22 nM. The EC50 [2, 8] was 22 nM and the EC50 [3, 9] was 34 nM.
`CCC(=O)O[C@H]1[C@H](c2ccc3c(N)ncnn23)O[C@](C#N)(CO[P@@](=O)(N[C@@H](C)C(=O)OC)Oc2ccccc2)[C@H]1OC(=O)CC` (single isomer, unassigned) [Example 143] was tested, and the EC50 [1, 6] was 5570 nM, the EC50 [2, 7] was 18 nM and the EC50 [3, 9] was 92 nM.
With `CCC(=O)O[C@H]1[C@H](c2ccc3c(N)ncnn23)O[C@](C#N)(CO[P@@](=O)(N[C@@H](C)C(=O)OC2CCCCC2)Oc2ccccc2)[C@H]1OC(=O)CC` [Example 82, (2R,3S,4S,5S)-5-(4-aminopyrrolo[2,1-f][1,2,4]triazin-7-yl)-2-cyano-2-((((S)-(((S)-1-(cyclohexyloxy)-1-oxopropan-2-yl)amino)(phenoxy)phosphoryl)oxy)methyl) tetrahydrofuran-3,4-diyl dipropionate] the EC50 [1, 6] was 7630 nM, the EC50 [2, 7] was 32 nM and the EC50 [3, 9] was 58 nM.
In the case of `CCC(=O)O[C@H]1[C@H](c2ccc3c(N)ncnn23)O[C@](C#N)(CO[P@@](=O)(N[C@@H](C)C(=O)OC(C)C)Oc2ccccc2)[C@H]1OC(=O)CC` [Example 90, (2R,3S,4S,5S)-5-(4-Aminopyrrolo[2,1-f][1,2,4]triazin-7-yl)-2-cyano-2-((((S)-(((S)-1-isopropoxy-1-oxopropan-2-yl)amino)(phenoxy)phosphoryl)oxy)methyl) tetrahydrofuran-3,4-diyl dipropionate], the EC50 [1, 6] is reported as 24300 nM, the EC50 [2, 7] is reported as 45 nM and the EC50 [3, 9] is reported as 109 nM.
For `CC(C)C(=O)O[C@H]1[C@H](c2ccc3c(N)ncnn23)O[C@](C#N)(CO[P@@](=O)(N[C@@H](C)C(=O)OC2CCCCC2)Oc2ccccc2)[C@H]1OC(=O)C(C)C` [Example 77, (2R,3S,4S,5S)-5-(4-aminopyrrolo[2,1-f][1,2,4]triazin-7-yl)-2-cyano-2-((((S)-(((S)-1-(cyclohexyloxy)-1-oxopropan-2-yl)amino)(phenoxy)phosphoryl)oxy)methyl) tetrahydrofuran-3,4-diyl bis(2-methylpropanoate)], the EC50 [1, 6] was 5390 nM, the EC50 [2, 7] was 24 nM and the EC50 [3, 9] was 57 nM.
